Measurements published in ChEMBL document CHEMBL1129908, “ECD peptides inhibit in vitro fertilization in mice” (Bioorg Med Chem Lett, 1997).
Where a SMILES comes first, the peptide text is derived from it.

Species on record: Mus musculus
Assay: Tested for inhibition of sperm-egg fusion in in vitro mouse fertilization assays
Assay type: functional

In the case of `CC(C)C[C@H](NC(=O)[C@H](CCCN=C(N)N)NC(=O)[C@@H](N)CS)C(=O)N[C@@H](C)C(=O)N[C@@H](CCC(N)=O)C(=O)N[C@@H](CC(=O)O)C(=O)N[C@@H](CCC(=O)O)C(=O)N[C@@H](C)C(=O)N[C@@H](CC(=O)O)C(=O)N[C@H](C(=O)N[C@H](C(=O)N[C@@H](CCC(=O)O)C(=O)N[C@@H](Cc1ccc(O)cc1)C(=O)N[C@@H](CS)C(=O)O)[C@@H](C)O)C(C)C` (H-CRLAQDEADVTEYC-OH), the IC50 is reported as 250 µM.
